pIC50: −log10 of the molar value.
Experiments:
Assay in all cases: KAM-matrix competition in K562 lysate;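 as to 0.001 uM KAM: median log10 fold change of treatment over DMSO control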;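 as to 0.01 uM KAM: median log10 fold change of treatment over DMSO control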;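 as to 0.1 uM KAM: median log10 fold change of treatment over DMSO control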;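 as to 1 uM KAM: median log10 fold change of treatment over DMSO control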;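 as to 10 uM KAM: median log10 fold change of treatment over DMSO control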
Assay type in all cases: binding
ADCK3 = molecular target: T1, ADCK3 (Homo sapiens, UniProt Q8NI60);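 as to 0.001 uM KAM: median log10 fold change of treatment over DMSO control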;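 as to 0.01 uM KAM: median log10 fold change of treatment over DMSO control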;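 as to 0.1 uM KAM: median log10 fold change of treatment over DMSO control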;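 as to 1 uM KAM: median log10 fold change of treatment over DMSO control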;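 as to 10 uM KAM: median log10 fold change of treatment over DMSO control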
T1 construct: endogenous in cells; host or cells: K562
Method: (§1) Supplement 12953_2017_125_MOESM1_ESM.zip/MS_Supp Info.xlsx, sheet "KAM" | column: 10 uM KAM; 1 uM KAM; 0.1 uM KAM; 0.01 uM KAM; 0.001 uM KAM; RB50

CHEK1 = molecular target: T2, CHEK1 (Homo sapiens, UniProt O14757)
T2 construct: endogenous in cells; host or cells: K562
T2 sequence (O14757 1-476): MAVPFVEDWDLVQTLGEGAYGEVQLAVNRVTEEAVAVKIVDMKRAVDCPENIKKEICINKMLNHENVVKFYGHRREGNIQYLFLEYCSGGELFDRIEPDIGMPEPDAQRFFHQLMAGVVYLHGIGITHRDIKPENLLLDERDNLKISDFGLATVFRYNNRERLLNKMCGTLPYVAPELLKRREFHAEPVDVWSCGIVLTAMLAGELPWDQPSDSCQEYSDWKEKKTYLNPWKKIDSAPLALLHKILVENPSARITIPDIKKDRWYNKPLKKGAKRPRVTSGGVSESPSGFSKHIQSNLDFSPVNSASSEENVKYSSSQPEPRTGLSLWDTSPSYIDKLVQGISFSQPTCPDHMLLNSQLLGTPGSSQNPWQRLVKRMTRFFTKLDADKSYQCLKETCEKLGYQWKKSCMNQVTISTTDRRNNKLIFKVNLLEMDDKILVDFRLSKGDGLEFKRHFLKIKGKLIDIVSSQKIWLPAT
Method: as §1

DAPK1 = molecular target: T3, DAPK1 (Homo sapiens, UniProt P53355);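 as to 0.001 uM KAM: median log10 fold change of treatment over DMSO control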;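 as to 0.01 uM KAM: median log10 fold change of treatment over DMSO control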;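 as to 0.1 uM KAM: median log10 fold change of treatment over DMSO control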;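 as to 1 uM KAM: median log10 fold change of treatment over DMSO control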;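 as to 10 uM KAM: median log10 fold change of treatment over DMSO control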
T3 construct: endogenous in cells; host or cells: K562
Method: as §1

FLT1 = molecular target: T4, FLT1 (Homo sapiens, UniProt P17948);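 as to 0.001 uM KAM: median log10 fold change of treatment over DMSO control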;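 as to 0.01 uM KAM: median log10 fold change of treatment over DMSO control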;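 as to 0.1 uM KAM: median log10 fold change of treatment over DMSO control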;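 as to 1 uM KAM: median log10 fold change of treatment over DMSO control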;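 as to 10 uM KAM: median log10 fold change of treatment over DMSO control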
T4 construct: endogenous in cells; host or cells: K562
Method: as §1

KIT = molecular target: T5, KIT (Homo sapiens, UniProt P10721);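 as to 0.001 uM KAM: median log10 fold change of treatment over DMSO control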;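 as to 0.01 uM KAM: median log10 fold change of treatment over DMSO control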;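 as to 0.1 uM KAM: median log10 fold change of treatment over DMSO control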;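 as to 1 uM KAM: median log10 fold change of treatment over DMSO control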;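 as to 10 uM KAM: median log10 fold change of treatment over DMSO control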
T5 construct: endogenous in cells; host or cells: K562 cells (combined S0.8 and P0.8 lysate)
Method: as §1

KSR1 = molecular target: T6, KSR1 (Homo sapiens, UniProt Q8IVT5);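 as to 0.001 uM KAM: median log10 fold change of treatment over DMSO control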;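 as to 0.01 uM KAM: median log10 fold change of treatment over DMSO control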;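 as to 0.1 uM KAM: median log10 fold change of treatment over DMSO control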;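 as to 1 uM KAM: median log10 fold change of treatment over DMSO control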;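 as to 10 uM KAM: median log10 fold change of treatment over DMSO control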
T6 construct: endogenous in cells; host or cells: K562
T6 sequence (Q8IVT5 1-923): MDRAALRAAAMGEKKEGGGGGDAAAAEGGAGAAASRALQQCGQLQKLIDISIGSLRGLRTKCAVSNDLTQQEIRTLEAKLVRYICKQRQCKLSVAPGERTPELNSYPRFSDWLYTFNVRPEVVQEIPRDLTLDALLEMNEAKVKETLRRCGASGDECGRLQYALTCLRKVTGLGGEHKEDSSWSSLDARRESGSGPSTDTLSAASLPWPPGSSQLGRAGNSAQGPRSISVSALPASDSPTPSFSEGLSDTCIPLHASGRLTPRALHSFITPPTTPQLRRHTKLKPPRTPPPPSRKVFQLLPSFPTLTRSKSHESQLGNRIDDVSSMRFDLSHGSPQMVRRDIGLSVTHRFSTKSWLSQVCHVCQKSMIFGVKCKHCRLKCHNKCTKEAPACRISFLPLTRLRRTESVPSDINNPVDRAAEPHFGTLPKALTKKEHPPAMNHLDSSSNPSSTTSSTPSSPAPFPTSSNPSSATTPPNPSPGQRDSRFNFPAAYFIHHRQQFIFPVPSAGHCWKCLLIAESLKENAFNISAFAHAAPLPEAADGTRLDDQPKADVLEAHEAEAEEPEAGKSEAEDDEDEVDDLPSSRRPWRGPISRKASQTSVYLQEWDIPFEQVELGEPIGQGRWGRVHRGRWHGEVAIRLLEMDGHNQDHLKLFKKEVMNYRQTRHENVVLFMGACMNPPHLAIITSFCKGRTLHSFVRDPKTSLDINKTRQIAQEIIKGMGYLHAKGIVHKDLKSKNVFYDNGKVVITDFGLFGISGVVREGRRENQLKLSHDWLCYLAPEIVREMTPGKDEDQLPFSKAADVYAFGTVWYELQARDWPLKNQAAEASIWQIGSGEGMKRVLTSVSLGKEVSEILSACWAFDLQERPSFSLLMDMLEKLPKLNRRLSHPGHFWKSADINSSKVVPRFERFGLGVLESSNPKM
Method: as §1

LIMK2 = molecular target: T7, LIMK2 (Homo sapiens, UniProt P53671);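 as to 0.001 uM KAM: median log10 fold change of treatment over DMSO control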;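 as to 0.01 uM KAM: median log10 fold change of treatment over DMSO control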;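 as to 0.1 uM KAM: median log10 fold change of treatment over DMSO control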;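 as to 1 uM KAM: median log10 fold change of treatment over DMSO control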;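 as to 10 uM KAM: median log10 fold change of treatment over DMSO control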
T7 construct: endogenous in cells; host or cells: K562
Method: as §1

PDIK1L = molecular target: T8, PDIK1L (Homo sapiens, UniProt Q8N165)
T8 construct: endogenous in cells; host or cells: K562
Method: as §1

[1] = KAM 0.001-10 uM, read-out: RB50 (the source's name)
[2] = read-out: RB50 (the source's name)

T7 sequence (P53671 whole entry): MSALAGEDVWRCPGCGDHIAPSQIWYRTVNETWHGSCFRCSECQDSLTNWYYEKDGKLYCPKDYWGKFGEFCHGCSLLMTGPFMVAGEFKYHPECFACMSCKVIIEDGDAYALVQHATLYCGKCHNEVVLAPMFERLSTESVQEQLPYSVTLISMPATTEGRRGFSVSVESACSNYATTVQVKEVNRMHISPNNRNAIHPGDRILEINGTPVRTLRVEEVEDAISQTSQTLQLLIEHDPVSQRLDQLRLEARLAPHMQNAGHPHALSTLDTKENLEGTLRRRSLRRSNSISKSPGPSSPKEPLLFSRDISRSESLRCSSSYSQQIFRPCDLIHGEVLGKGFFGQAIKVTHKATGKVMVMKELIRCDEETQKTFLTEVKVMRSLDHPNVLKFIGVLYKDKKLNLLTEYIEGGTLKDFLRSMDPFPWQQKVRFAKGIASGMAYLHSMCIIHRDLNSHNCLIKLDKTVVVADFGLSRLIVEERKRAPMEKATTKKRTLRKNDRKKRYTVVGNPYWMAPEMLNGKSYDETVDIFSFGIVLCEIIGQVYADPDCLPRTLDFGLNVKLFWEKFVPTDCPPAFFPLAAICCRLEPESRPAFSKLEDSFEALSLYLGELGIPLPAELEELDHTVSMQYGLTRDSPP
T8 sequence (Q8N165 whole entry): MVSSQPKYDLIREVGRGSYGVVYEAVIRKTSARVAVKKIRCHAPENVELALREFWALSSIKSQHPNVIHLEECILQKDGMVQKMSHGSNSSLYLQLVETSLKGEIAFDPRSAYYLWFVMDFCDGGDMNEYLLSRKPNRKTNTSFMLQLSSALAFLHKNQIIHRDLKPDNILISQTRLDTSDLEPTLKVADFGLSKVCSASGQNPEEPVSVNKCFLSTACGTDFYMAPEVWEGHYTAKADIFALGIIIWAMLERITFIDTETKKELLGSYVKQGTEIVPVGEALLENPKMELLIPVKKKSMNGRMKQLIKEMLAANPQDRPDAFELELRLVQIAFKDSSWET
T5 sequence (P10721 26-976): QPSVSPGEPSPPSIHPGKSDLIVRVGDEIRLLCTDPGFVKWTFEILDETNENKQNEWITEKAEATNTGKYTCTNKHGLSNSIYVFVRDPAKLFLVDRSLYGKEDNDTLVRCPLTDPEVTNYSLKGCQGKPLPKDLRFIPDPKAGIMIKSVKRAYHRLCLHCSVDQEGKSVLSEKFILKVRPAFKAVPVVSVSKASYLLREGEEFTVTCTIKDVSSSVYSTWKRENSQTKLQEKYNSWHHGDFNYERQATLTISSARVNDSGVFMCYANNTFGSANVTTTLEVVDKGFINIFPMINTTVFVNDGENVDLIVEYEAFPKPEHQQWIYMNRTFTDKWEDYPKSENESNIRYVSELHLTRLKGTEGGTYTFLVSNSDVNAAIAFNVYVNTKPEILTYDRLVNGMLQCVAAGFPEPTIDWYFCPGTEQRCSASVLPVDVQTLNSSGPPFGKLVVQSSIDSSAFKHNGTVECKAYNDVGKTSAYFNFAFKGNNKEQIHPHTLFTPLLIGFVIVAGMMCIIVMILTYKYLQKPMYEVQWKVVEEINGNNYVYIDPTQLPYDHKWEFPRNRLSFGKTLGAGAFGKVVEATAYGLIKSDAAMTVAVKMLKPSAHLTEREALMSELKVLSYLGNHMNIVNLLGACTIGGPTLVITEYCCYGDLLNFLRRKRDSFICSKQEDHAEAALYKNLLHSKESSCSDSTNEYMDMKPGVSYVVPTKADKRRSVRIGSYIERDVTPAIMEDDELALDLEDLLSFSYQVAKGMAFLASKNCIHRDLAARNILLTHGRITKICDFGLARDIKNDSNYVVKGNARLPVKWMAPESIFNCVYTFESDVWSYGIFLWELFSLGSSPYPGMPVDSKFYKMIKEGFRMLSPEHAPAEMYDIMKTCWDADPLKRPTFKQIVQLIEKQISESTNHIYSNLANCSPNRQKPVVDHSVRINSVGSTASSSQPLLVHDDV
T1 sequence (Q8NI60 163-647): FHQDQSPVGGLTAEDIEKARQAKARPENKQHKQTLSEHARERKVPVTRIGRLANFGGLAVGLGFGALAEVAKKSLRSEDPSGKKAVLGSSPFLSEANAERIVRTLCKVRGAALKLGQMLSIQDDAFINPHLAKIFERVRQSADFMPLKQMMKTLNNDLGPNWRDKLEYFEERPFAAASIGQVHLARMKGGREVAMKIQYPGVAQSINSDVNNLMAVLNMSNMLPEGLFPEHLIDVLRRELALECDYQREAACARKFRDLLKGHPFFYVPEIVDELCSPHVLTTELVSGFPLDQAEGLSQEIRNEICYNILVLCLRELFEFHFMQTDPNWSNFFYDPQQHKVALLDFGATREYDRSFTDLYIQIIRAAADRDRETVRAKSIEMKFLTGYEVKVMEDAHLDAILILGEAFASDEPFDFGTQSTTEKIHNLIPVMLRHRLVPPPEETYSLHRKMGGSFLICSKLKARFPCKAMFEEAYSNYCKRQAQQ
T3 sequence (P53355 whole entry): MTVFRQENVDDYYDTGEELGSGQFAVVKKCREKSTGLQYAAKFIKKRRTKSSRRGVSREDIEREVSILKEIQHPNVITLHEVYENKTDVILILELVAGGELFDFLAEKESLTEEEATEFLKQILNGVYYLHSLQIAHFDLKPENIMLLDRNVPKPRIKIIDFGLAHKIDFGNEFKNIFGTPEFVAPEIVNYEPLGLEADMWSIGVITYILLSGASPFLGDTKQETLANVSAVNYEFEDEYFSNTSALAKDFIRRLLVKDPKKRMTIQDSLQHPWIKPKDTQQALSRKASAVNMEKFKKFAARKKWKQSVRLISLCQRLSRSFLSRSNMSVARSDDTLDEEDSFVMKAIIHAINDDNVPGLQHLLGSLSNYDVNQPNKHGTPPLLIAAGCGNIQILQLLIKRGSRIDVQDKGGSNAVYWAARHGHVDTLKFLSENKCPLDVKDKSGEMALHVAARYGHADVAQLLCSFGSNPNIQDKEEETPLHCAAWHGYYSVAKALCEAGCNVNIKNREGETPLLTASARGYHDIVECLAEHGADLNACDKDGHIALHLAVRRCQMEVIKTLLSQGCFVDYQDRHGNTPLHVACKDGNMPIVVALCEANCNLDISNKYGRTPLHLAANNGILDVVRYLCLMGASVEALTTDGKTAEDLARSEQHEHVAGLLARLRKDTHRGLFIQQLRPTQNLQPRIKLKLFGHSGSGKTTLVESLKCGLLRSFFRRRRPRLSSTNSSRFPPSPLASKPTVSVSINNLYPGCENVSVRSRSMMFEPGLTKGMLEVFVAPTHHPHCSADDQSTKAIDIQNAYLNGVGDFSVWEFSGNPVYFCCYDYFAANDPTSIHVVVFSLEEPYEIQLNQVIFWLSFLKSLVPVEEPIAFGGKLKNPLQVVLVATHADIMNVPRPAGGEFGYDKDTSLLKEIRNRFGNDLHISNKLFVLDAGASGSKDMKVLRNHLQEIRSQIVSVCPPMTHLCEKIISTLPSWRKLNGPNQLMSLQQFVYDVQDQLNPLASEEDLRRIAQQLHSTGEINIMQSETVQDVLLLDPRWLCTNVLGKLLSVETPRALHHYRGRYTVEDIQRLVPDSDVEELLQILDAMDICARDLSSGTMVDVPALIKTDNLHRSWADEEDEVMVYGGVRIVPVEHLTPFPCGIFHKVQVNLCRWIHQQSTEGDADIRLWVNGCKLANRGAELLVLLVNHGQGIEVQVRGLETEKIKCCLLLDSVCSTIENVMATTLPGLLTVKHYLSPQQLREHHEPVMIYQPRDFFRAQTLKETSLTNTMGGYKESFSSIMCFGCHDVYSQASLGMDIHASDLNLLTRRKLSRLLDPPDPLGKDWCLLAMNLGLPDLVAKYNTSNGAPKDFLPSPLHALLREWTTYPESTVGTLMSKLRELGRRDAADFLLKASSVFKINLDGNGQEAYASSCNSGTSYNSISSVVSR

Question: With `N#CCc1ccc(Nc2nc(NCCCN)cc(Nc3cc(C4CC4)[nH]n3)n2)cc1` [KAM] as the compound, how does the pIC50 (ADCK3; [1]) read?
Answer: The pIC50 was under 5.00.

Question: What about the “0.001 uM KAM” value (ADCK3; relative to 0 uM KAM = 0) of the same compound?
Answer: The value was -0.001841.

Question: And the “0.01 uM KAM” value (ADCK3; relative to 0 uM KAM = 0)?
Answer: Its value is 0.006632.

Question: What about the “0.1 uM KAM” value (ADCK3; relative to 0 uM KAM = 0) of the same compound?
Answer: The value was 0.0007813.

Question: What about the “1 uM KAM” value (ADCK3; relative to 0 uM KAM = 0) of the same compound?
Answer: The value was 0.03707.

Question: And the “10 uM KAM” value (ADCK3; relative to 0 uM KAM = 0)?
Answer: The value was -0.06845.

Question: And the “median Log10 fold change” value (CHEK1; 0.001 uM KAM)?
Answer: The value was -0.01146.

Question: What about the “median Log10 fold change” value (CHEK1; 0.01 uM KAM) of the same compound?
Answer: Its value is -0.009061.

Question: And the “median Log10 fold change” value (CHEK1; 0.1 uM KAM)?
Answer: Its value is -0.1025.

Question: What about the “median Log10 fold change” value (CHEK1; 1 uM KAM) of the same compound?
Answer: The value was -0.2953.

Question: What about the “median Log10 fold change” value (CHEK1; 10 uM KAM) of the same compound?
Answer: The value was -0.4632.

Question: And the pIC50 (CHEK1; [2])?
Answer: Its pIC50 is 5.89.

Question: What about the pIC50 (DAPK1; [1]) of the same compound?
Answer: The pIC50 was under 5.00.

Question: And the “0.001 uM KAM” value (DAPK1; relative to 0 uM KAM = 0)?
Answer: The value was -0.04615.

Question: And the “0.01 uM KAM” value (DAPK1; relative to 0 uM KAM = 0)?
Answer: The value was 0.02037.

Question: What about the “0.1 uM KAM” value (DAPK1; relative to 0 uM KAM = 0) of the same compound?
Answer: The value was -0.07451.

Question: And the “1 uM KAM” value (DAPK1; relative to 0 uM KAM = 0)?
Answer: The value was -0.06277.

Question: And the “10 uM KAM” value (DAPK1; relative to 0 uM KAM = 0)?
Answer: Its value is -0.09328.

Question: What about the pIC50 (FLT1; [1]) of the same compound?
Answer: The pIC50 was under 5.00.

Question: And the “0.001 uM KAM” value (FLT1; relative to 0 uM KAM = 0)?
Answer: The value was -0.03836.

Question: And the “0.01 uM KAM” value (FLT1; relative to 0 uM KAM = 0)?
Answer: Its value is 0.0203.

Question: What about the “0.1 uM KAM” value (FLT1; relative to 0 uM KAM = 0) of the same compound?
Answer: Its value is -0.001012.

Question: And the “1 uM KAM” value (FLT1; relative to 0 uM KAM = 0)?
Answer: The value was -0.1879.

Question: And the “10 uM KAM” value (FLT1; relative to 0 uM KAM = 0)?
Answer: The value was -0.2168.

Question: And the pIC50 (KIT; [1])?
Answer: Its pIC50 is under 5.00.

Question: And the “0.001 uM KAM” value (KIT; relative to 0 uM KAM = 0)?
Answer: The value was -0.03484.

Question: What about the “0.01 uM KAM” value (KIT; relative to 0 uM KAM = 0) of the same compound?
Answer: Its value is -0.02696.

Question: And the “0.1 uM KAM” value (KIT; relative to 0 uM KAM = 0)?
Answer: The value was -0.08182.

Question: What about the “1 uM KAM” value (KIT; relative to 0 uM KAM = 0) of the same compound?
Answer: Its value is -0.1617.

Question: And the “10 uM KAM” value (KIT; relative to 0 uM KAM = 0)?
Answer: The value was -0.1565.

Question: What about the pIC50 (KSR1; [1]) of the same compound?
Answer: Its pIC50 is under 5.00.

Question: And the “0.001 uM KAM” value (KSR1; relative to 0 uM KAM = 0)?
Answer: Its value is -0.01848.

Question: What about the “0.01 uM KAM” value (KSR1; relative to 0 uM KAM = 0) of the same compound?
Answer: The value was -0.01741.

Question: What about the “0.1 uM KAM” value (KSR1; relative to 0 uM KAM = 0) of the same compound?
Answer: Its value is -0.1182.

Question: And the “1 uM KAM” value (KSR1; relative to 0 uM KAM = 0)?
Answer: The value was -0.1931.

Question: What about the “10 uM KAM” value (KSR1; relative to 0 uM KAM = 0) of the same compound?
Answer: The value was -0.2362.

Question: And the pIC50 (LIMK2; [1])?
Answer: Its pIC50 is under 5.00.

Question: And the “0.001 uM KAM” value (LIMK2; relative to 0 uM KAM = 0)?
Answer: Its value is -0.04927.

Question: And the “0.01 uM KAM” value (LIMK2; relative to 0 uM KAM = 0)?
Answer: The value was -0.08611.

Question: And the “0.1 uM KAM” value (LIMK2; relative to 0 uM KAM = 0)?
Answer: Its value is -0.1176.

Question: And the “1 uM KAM” value (LIMK2; relative to 0 uM KAM = 0)?
Answer: Its value is -0.1595.

Question: And the “10 uM KAM” value (LIMK2; relative to 0 uM KAM = 0)?
Answer: Its value is 0.03187.

Question: What about the “median Log10 fold change” value (PDIK1L; 0.001 uM KAM) of the same compound?
Answer: The value was -0.01583.

Question: What about the “median Log10 fold change” value (PDIK1L; 0.01 uM KAM) of the same compound?
Answer: Its value is -0.03169.

Question: And the “median Log10 fold change” value (PDIK1L; 0.1 uM KAM)?
Answer: Its value is -0.1434.

Question: And the “median Log10 fold change” value (PDIK1L; 1 uM KAM)?
Answer: Its value is -0.3076.

Question: And the “median Log10 fold change” value (PDIK1L; 10 uM KAM)?
Answer: The value was -0.3596.

Question: What about the pIC50 (PDIK1L; [2]) of the same compound?
Answer: The pIC50 was 5.88.

From paper PMC5513037, “Examining the influence of specificity ligands and ATP-competitive ligands on the overall effectiveness of bivalent kinase inhibitors” (Proteome Science, 2017)
